Experiment [1] concerns picornaviruses (CVB1, HRV-A2, HRV-A23, EV-68). As to the kind of experiment: Anti-picornavirus cytopathic effect (CPE) reduction assay on HeLa H1 cells. The format is cell-based. The conditions noted are these: Enterovirus B, HeLa H1, 48 h, HeLa H1 cells, 48 h, category from averaging the EC50 values from four picornaviruses (CVB1, HRV-A2, HRV-A23, EV68); read-out: EC50 values of the compounds determined in the anti-picornavirus assay. The procedure, abridged: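 HeLa H1 cells pre-treated 2 h with serially diluted compound in DMEM/2% FBS, then infected at an MOI giving full CPE in 2 days. After 48 h at 37° C, viability read by CellTiterBlue fluorescence (ex 560/em 590 nm), normalised to infected and uninfected vehicle controls; EC50 by non-linear regression, category from mean of four viruses.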
For orientation: Protection from cytopathic effect is a common read-out in antiviral testing.

Experiment [2] has as its target T1, PLA2G16 (Homo sapiens, UniProt P53816).
T1 construct: Hexa-His (N); made in house; host or cells: E. coli BL21(DE3)
T1 sequence (P53816 1-162): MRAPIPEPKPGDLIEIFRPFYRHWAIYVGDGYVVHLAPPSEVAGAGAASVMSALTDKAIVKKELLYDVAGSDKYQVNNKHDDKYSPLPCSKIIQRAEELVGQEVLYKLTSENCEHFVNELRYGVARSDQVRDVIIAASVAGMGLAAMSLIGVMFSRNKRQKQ
As to the kind of experiment: Enzyme activity assay for PLA2G16 (Red/Green BODIPY PC-A2 fluorescence). The class given is biochemical. Conditions: His-tagged PLA2G16, 4 min pre-incubation, 2 nM to 50 μM; read-out: IC50 values of the compounds determined in the enzyme activity assay for PLA2G16. The procedure, abridged:
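N-His-tagged human PLA2G16 from E. coli, Ni-NTA purified. Pre-incubated 4 min with compound (2 nM–50 μM final) in pH 8.5 Tris/NaCl buffer with 5 mM glutathione, then BODIPY PC-A2 in DOPC/DOPG/cholesterol vesicles added. Fluorescence (ex 480/em 530 nm) increase over 10 min taken as activity; IC50 by non-linear regression.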

As usually defined, the EC50 is the concentration at which the effect is half-maximal. What is called IC50 is the point on the concentration scale where inhibition reaches its midpoint. With `CNC(=O)C(=O)[C@H]1CCC(=O)N1Cc1ccccc1` [FP 281, 2-[(2R)-1-Benzyl-5-oxopyrrolidin-2-yl]-N-methyl-2-oxoacetamide], the EC50 in experiment [1] was 1000 to 10000 nM. Besides, the IC50 in experiment [2] was less than 1000 nM.
In the same order, the values of `CC(C(=O)C(=O)NCC1CCCCC1)N(C=O)CC1CCOCC1` (centres unmarked) [FP 49, N-(Cyclohexylmethyl)-3-{N-[(oxan-4-yl)methyl]formamido}-2-oxobutanamide] are less than 1000 nM and less than 1000 nM.
The like results for `CC(C)CC(=O)N1CC(NC(=O)C(=O)[C@H]2CCC(=O)N2Cc2ccccc2)C1` [FP 317, 2-[(2R)-1-Benzyl-5-oxopyrrolidin-2-yl]-N-[1-(3-methylbutanoyl)azetidin-3-yl]-2-oxoacetamide] were, in that order, 1000 to 10000 nM and less than 1000 nM.
In the case of `CCNC(=O)C(=O)[C@H]1CCC(=O)N1Cc1ccc(Cl)cc1` [FP 285, 2-[(2R)-1-[(4-Chlorophenyl)methyl]-5-oxopyrrolidin-2-yl]-N-ethyl-2-oxoacetamide], in experiment [1], the EC50 is less than 1000 nM. Moreover, the IC50 in experiment [2] was less than 1000 nM.
In the case of `N#CCCNC(=O)C(=O)[C@H]1CCC(=O)N1Cc1ccccc1` [FP 262, 2-[(2R)-1-Benzyl-5-oxopyrrolidin-2-yl]-N-(2-cyanoethyl)-2-oxoacetamide], the EC50 in experiment [1] is 1000 to 10000 nM. The half-maximal inhibitory concentration (IC50) in experiment [2] is less than 1000 nM.
In the same order, the values of `CC(NC(=O)C1CC(F)(F)C1)C(=O)C(=O)NCC1CC1` (centres unmarked) [FP 174, N-(Cyclopropylmethyl)-3-[(3,3-difluorocyclobutyl)formamido]-2-oxobutanamide] are greater than 10000 nM and 1000 to 10000 nM.
The like results for `CC(C)CC(C(=O)C(=O)NCC1CC1)N(C=O)C[C@@H]1CCOC1` (stereo partly drawn) [FP 64, N-(Cyclopropylmethyl)-5-methyl-2-oxo-3-(N{[(3S)-oxolan-3-yl]methyl}formamido) hexanamide] were, in that order, 1000 to 10000 nM and less than 1000 nM.
For `CC[C@@H](C)NC(=O)C(=O)C(C)N(C=O)c1ccccc1OC` (stereo partly drawn) [FP 102, N-[(2R)-Butan-2-yl]-3-[N-(2-methoxyphenyl)formamido]-2-oxobutanamide], the EC50 in experiment [1] is 1000 to 10000 nM. The IC50 in experiment [2] is less than 1000 nM.
In the same order, the values of `COc1ccccc1N(C(=O)C(C)C)C(C)C(=O)C(=O)NCc1cccc(Cl)c1` (centres unmarked) [FP 142, N-[(3-Chlorophenyl)methyl]-3-[N-(2-methoxyphenyl)-2-methylpropanamido]-2-oxobutanamide] are 1000 to 10000 nM and less than 1000 nM.
Take `O=C(N[C@@H]1CCCCNC1=O)C(=O)[C@H]1CCC(=O)N1Cc1ccccc1` [FP 300, 2-[(2R)-1-Benzyl-5-oxopyrrolidin-2-yl]-2-oxo-N-[(3R)-2-oxoazepan-3-yl]acetamide]: the EC50 in experiment [1] was 1000 to 10000 nM. Further, in experiment [2], the IC50 was less than 1000 nM.
Take `CC(OCC(C)(C)C)C(=O)C(=O)NCC1CC1` (centres unmarked) [FP 122, N-(Cyclopropylmethyl)-3-(2,2-dimethylpropoxy)-2-oxobutanamide]: the EC50 in experiment [1] fell in the range of 1000 to 10000 nM. Also, in experiment [2], the IC50 lay in the range of 1000 to 10000 nM.
For the molecule `CC(NS(=O)(=O)Cc1ccccc1)C(=O)C(=O)NCC1CC1` (centres unmarked) [FP 188, N-(Cyclopropylmethyl)-2-oxo-3-(phenylmethanesulfonamido)butanamide], the EC50 in experiment [1] was greater than 10000 nM. Further, in experiment [2], the IC50 was less than 1000 nM.
For the molecule `CC(C(=O)C(=O)NCCOc1ccccc1)N(C=O)C1CCCCC1` (centres unmarked) [FP 109, 3-(N-Cyclohexylformamido)-2-oxo-N-(2-phenoxyethyl)butanamide], in experiment [1], the EC50 was less than 1000 nM. The IC50 in experiment [2] was less than 1000 nM.
`O=C(NC1CCCC1)C(=O)[C@H]1CCC(=O)N1Cc1ccccc1` [FP 239, 2-[(2R)-1-Benzyl-5-oxopyrrolidin-2-yl]-N-cyclopentyl-2-oxoacetamide]: the EC50 in experiment [1] was less than 1000 nM. The IC50 in experiment [2] was less than 1000 nM.
`COC(=O)N(CC1CCOCC1)C(C)C(=O)C(=O)NCC(C)C` (centres unmarked) [FP 152, Methyl N-{1-[(2-methylpropyl)carbamoyl]-1-oxopropan-2-yl}-N-[(oxan-4-yl)methyl]carbamate]: in experiment [1], the EC50 was greater than 10000 nM. In addition, the IC50 in experiment [2] lay within 1000 to 10000 nM.
For `Cc1cc(CNC(=O)C(=O)[C@H]2CCC(=O)N2Cc2ccccc2)no1` [FP 289, 2-[(2R)-1-Benzyl-5-oxopyrrolidin-2-yl]-N-[(5-methyl-1,2-oxazol-3-yl)methyl]-2-oxoacetamide], the EC50 in experiment [1] is less than 1000 nM. Also, the half-maximal inhibitory concentration (IC50) in experiment [2] is less than 1000 nM.
On to `CC(OCC1CCOCC1)C(=O)C(=O)NCC1CC1` (centres unmarked) [FP 121, N-(Cyclopropylmethyl)-3-[(oxan-4-yl)methoxy]-2-oxobutanamide], for which, in experiment [1], the EC50 lay in the range of 1000 to 10000 nM. Moreover, in experiment [2], the IC50 is less than 1000 nM.
In the same order, the values of `O=C(NC1CCC1)C(=O)[C@H]1CCC(=O)N1Cc1ccccc1` [FP 237, 2-[(2R)-1-Benzyl-5-oxopyrrolidin-2-yl]-N-cyclobutyl-2-oxoacetamide] are less than 1000 nM and less than 1000 nM.
Regarding `CCC(NC(=O)c1cccnc1)C(=O)C(=O)NCC1CCCCC1` (centres unmarked) [FP 210, N-(Cyclohexylmethyl)-2-oxo-3-[(pyridin-3-yl)formamido]pentanamide], the EC50 in experiment [1] fell in the range of 1000 to 10000 nM. For the same molecule, in experiment [2], the half-inhibitory concentration (IC50) was less than 1000 nM.
Regarding `COc1ccccc1N(C=O)C(C)C(=O)C(=O)NCc1ccc(Cl)cc1` (centres unmarked) [FP 91, N-[(4-Chlorophenyl)methyl]-3-[N-(2-methoxyphenyl)formamido]-2-oxobutanamide], the EC50 in experiment [1] was less than 1000 nM. Besides, the half-maximal inhibitory concentration (IC50) in experiment [2] was less than 1000 nM.
Take `CC(C(=O)C(=O)NCC(F)F)N(C=O)C1CCCCC1` (centres unmarked) [FP 111, 3-(N-Cyclohexylformamido)-N-(2,2-difluoroethyl)-2-oxobutanamide]: in experiment [1], the EC50 was greater than 10000 nM. Moreover, the IC50 in experiment [2] was less than 1000 nM.
In the same order, the values of `CC(C)(C#N)CNC(=O)C(=O)[C@H]1CCC(=O)N1Cc1ccccc1` [FP 263, 2-[(2R)-1-Benzyl-5-oxopyrrolidin-2-yl]-N-(2-cyano-2,2-dimethylethyl)-2-oxoacetamide] are 1000 to 10000 nM and less than 1000 nM.
In the case of `CCC1CC(=O)N(Cc2ccccc2)C1C(=O)C(=O)NC1CC1` (centres unmarked) [FP 343, 2-(1-Benzyl-3-ethyl-5-oxopyrrolidin-2-yl)-N-cyclopropyl-2-oxoacetamide], the EC50 in experiment [1] was less than 1000 nM. The IC50 in experiment [2] was less than 1000 nM.
In the case of `CC(OCC1CCOCC1)C(=O)C(=O)NCC1CCC1` (centres unmarked) [FP 131, N-(Cyclobutylmethyl)-3-[(oxan-4-yl)methoxy]-2-oxobutanamide], in experiment [1], the EC50 was less than 1000 nM. The IC50 in experiment [2] is less than 1000 nM.
`CC(C(=O)C(=O)NCc1cccc(Cl)c1)N(C=O)C1CCOCC1` (centres unmarked) [FP 22, N-[(3-Chlorophenyl)methyl]-3-[N-(oxan-4-yl)formamido]-2-oxobutanamide]: the EC50 in experiment [1] was 1000 to 10000 nM. Also, in experiment [2], the IC50 was less than 1000 nM.
Regarding `O=C(NC1CC1)C(=O)C1CCC(=O)N1CCc1ccccc1` (centres unmarked) [FP 251, N-Cyclopropyl-2-oxo-2-[5-oxo-1-(2-phenylethyl)pyrrolidin-2-yl]acetamide], in experiment [1], the EC50 was 1000 to 10000 nM. In experiment [2], the IC50 was less than 1000 nM.
Regarding `CNC(=O)C(=O)C(C(C)C)N(C=O)Cc1ccccc1` (centres unmarked) [FP 197, 3-(N-Benzylformamido)-N,4-dimethyl-2-oxopentanamide], the half-maximal effective concentration (EC50) in experiment [1] is greater than 10000 nM. The IC50 in experiment [2] is less than 1000 nM.
Consider `CC(C(=O)C(=O)NCC1CCCCC1)N(C=O)C1CCCCC1` (centres unmarked) [FP 52, 3-(N-Cyclohexylformamido)-N-(cyclohexylmethyl)-2-oxobutanamide], for which, in experiment [1], the EC50 was less than 1000 nM. Besides, the IC50 in experiment [2] was less than 1000 nM.
On to `CC(C(=O)C(=O)NCCOc1ccc(C(N)=O)cc1)N(C=O)C1CCCCC1` (centres unmarked) [FP 114, 4-{2-[3-(N-Cyclohexylformamido)-2-oxobutanamido]ethoxy}benzamide], for which the EC50 in experiment [1] is greater than 10000 nM. In experiment [2], the IC50 was less than 1000 nM.
On to `Cc1cccc(C(=O)NC(C)C(=O)C(=O)NCC2CC2)c1` (centres unmarked) [FP 171, N-(Cyclopropylmethyl)-3-[(3-methylphenyl)formamido]-2-oxobutanamide], for which, in experiment [1], the EC50 is greater than 10000 nM. Further, the IC50 in experiment [2] lay in the range of 1000 to 10000 nM.
In the same order, the values of `O=C(NC1CCN(C(=O)NC2CCC2)CC1)C(=O)[C@H]1CCC(=O)N1Cc1ccccc1` [FP 324, 4-{2-[(2R)-1-Benzyl-5-oxopyrrolidin-2-yl]-2-oxoacetamido}-N-cyclobutylpiperidine-1-carboxamide] are less than 1000 nM and less than 1000 nM.
In the same order, the values of `CCCC(=O)N(c1ccccc1OC)C(C)C(=O)C(=O)NCc1cccc(Cl)c1` (centres unmarked) [FP 143, N-[(3-Chlorophenyl)methyl]-3-[N-(2-methoxyphenyl)butanamido]-2-oxobutanamide] are 1000 to 10000 nM and less than 1000 nM.
Consider `Cc1ccccc1C(=O)N[C@H](C)C(=O)C(=O)NCC1CC1` (single isomer, unassigned) [FP 158], for which, in experiment [1], the EC50 lay within 1000 to 10000 nM. In addition, the IC50 in experiment [2] is less than 1000 nM.
For the molecule `CC(C)C(=O)NCCCCNC(=O)C(=O)[C@H]1CCC(=O)N1Cc1ccccc1` [FP 304, N-(4-{2-[(2R)-1-Benzyl-5-oxopyrrolidin-2-yl]-2-oxoacetamido}butyl)-2-methylpropan-amide], in experiment [1], the EC50 fell in the range of 1000 to 10000 nM. Further, the IC50 in experiment [2] is less than 1000 nM.

Values taken from patent publication US11091428B2 (HAPLOGEN GMBH, priority 2016, dated 2021).
